Data as given in ChEMBL document CHEMBL5550184, “Structure-activity relationships of middle-size cyclic peptides, KRAS inhibitors derived from an mRNA display” (Bioorg Med Chem, 2024).
Starred links: 1 amine or outer side, 2 acyl side, 3 side chain; linkers in the order of their positions; H or OH if unused. Positions of bridges follow the written chain, without caps; N, C: chain ends. Non-standard residues stand in square brackets, D forms with d. Residues, ends and D or L forms follow the SMILES beside them. *: point of attachment. hPhe(3-Cl-4-CF3) = N[C@@H](CCc1ccc(C(F)(F)F)c(Cl)c1)C(=O)O; X2 = CN([C@@H](CC(=O)[*:2])C(=O)n1cccc1)[*:1]; NMePhe(4-Cl) = CN[C@@H](Cc1ccc(Cl)cc1)C(=O)O; Phe(3-Cl) = N[C@@H](Cc1cccc(Cl)c1)C(=O)O; NMeGly(cPent) = CN[C@H](C(=O)O)C1CCCC1; NMeGly(cBu) = CN[C@H](C(=O)O)C1CCC1; NMeCha = CN[C@@H](CC1CCCCC1)C(=O)O; NMeGly(cPr) = CN[C@H](C(=O)O)C1CC1; NMeChg = CN[C@H](C(=O)O)C1CCCCC1; NMeF = CN[C@@H](Cc1ccccc1)C(=O)O; NMeI = CC[C@H](C)[C@H](NC)C(=O)O; NMeD = CN[C@@H](CC(=O)O)C(=O)O; NMeL = CN[C@@H](CC(C)C)C(=O)O; NMeV = CN[C@H](C(=O)O)C(C)C; Azetidin(1-yl) = C1CN(*)C1; NMeA = CN[C@@H](C)C(=O)O; Piperidide = C1CCN(*)CC1; Ac5c = NC1(C(=O)O)CCCC1; Aze = O=C(O)[C@@H]1CCN1; Sar = CNCC(=O)O

Assays:
ASPC1 = assay: Cytotoxicity against human AsPC1 cells assessed as reduction in cell viability incubated for 7 days by CellTiterGlo Luminescent Cell Viability Assay; format: functional, cell-based; conditions: ASPC1, 168 h
[1] = Apparent permeability in human Caco-2 cells incubated for 180 mins by LC-MS/MS method; format: ADME, cell-based
[2] = Inhibition of biotin-tagged KRAS G12D mutant (unknown origin) to recombinant His-tagged SOS1 (unknown origin) protein-protein interaction incubated for 120 mins by AlphaLISA method; design: species or system Homo sapiens
GTPase KRas = GTPase KRas (Homo sapiens, UniProt P01116, G12D); assay: Binding affinity to biotinylated KRAS G12D mutant (unknown origin) incubated for 120 mins by SPR analysis
GTPase KRas, sequence (P01116 whole entry G12D): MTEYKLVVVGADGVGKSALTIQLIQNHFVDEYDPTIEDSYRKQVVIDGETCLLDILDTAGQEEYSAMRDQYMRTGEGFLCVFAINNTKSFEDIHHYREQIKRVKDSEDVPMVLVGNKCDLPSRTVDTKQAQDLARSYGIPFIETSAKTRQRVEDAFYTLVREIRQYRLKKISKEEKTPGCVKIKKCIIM

| SMILES | IC50 (ASPC1) | Papp at 3 h [1] | IC50 [2] | Kd (GTPase KRas) |
| --- | --- | --- | --- | --- |
| CC[C@H](C)[C@@H]1NC(=O)[C@H](CC2CCCCC2)N(C)C(=O)C[C@@H](C(=O)N2CCCCC2)N(C)C(=O)[C@H](C(C)C)N(C)C(=O)C2(CCCC2)NC(=O)[C@@H]2CCCN2C(=O)[C@H](CCc2ccc(C(F)(F)F)c(Cl)c2)NC(=O)CN(C)C(=O)[C@H](CC2CCCCC2)N(C)C(=O)CN(C)C(=O)CN(C)C1=O ([NMeCha]I[Sar][Sar][NMeCha][Sar][hPhe(3-Cl-4-CF3)]P[Ac5c][NMeV][NMeD]-Piperidide; lactam N-11) | 0.95 µM | 3.3 nm/s | 0.025 µM |  |
| CC[C@H](C)[C@@H]1NC(=O)[C@H](C2CCCCC2)N(C)C(=O)C[C@@H](C(=O)N2CCCCC2)N(C)C(=O)[C@H](C(C)C)N(C)C(=O)C2(CCCC2)NC(=O)[C@@H]2CCCN2C(=O)[C@H](CCc2ccc(C(F)(F)F)c(Cl)c2)NC(=O)CN(C)C(=O)[C@H](CC2CCCCC2)N(C)C(=O)CN(C)C(=O)CN(C)C1=O ([NMeChg]I[Sar][Sar][NMeCha][Sar][hPhe(3-Cl-4-CF3)]P[Ac5c][NMeV][NMeD]-Piperidide; lactam N-11) | 0.65 µM | 3.7 nm/s | 0.0078 µM |  |
| CC[C@H](C)[C@@H]1NC(=O)[C@H](C2CCC2)N(C)C(=O)C[C@@H](C(=O)N2CCCCC2)N(C)C(=O)[C@H](C(C)C)N(C)C(=O)C2(CCCC2)NC(=O)[C@@H]2CCCN2C(=O)[C@H](CCc2ccc(C(F)(F)F)c(Cl)c2)NC(=O)CN(C)C(=O)[C@H](CC2CCCCC2)N(C)C(=O)CN(C)C(=O)CN(C)C1=O ([NMeGly(cBu)]I[Sar][Sar][NMeCha][Sar][hPhe(3-Cl-4-CF3)]P[Ac5c][NMeV][NMeD]-Piperidide; lactam N-11) | 0.13 µM | 9.1 nm/s | 0.0028 µM |  |
| CC[C@H](C)[C@@H]1NC(=O)[C@H](C2CCCC2)N(C)C(=O)C[C@@H](C(=O)N2CCCCC2)N(C)C(=O)[C@H](C(C)C)N(C)C(=O)C2(CCCC2)NC(=O)[C@@H]2CCCN2C(=O)[C@H](CCc2ccc(C(F)(F)F)c(Cl)c2)NC(=O)CN(C)C(=O)[C@H](CC2CCCCC2)N(C)C(=O)CN(C)C(=O)CN(C)C1=O ([NMeGly(cPent)]I[Sar][Sar][NMeCha][Sar][hPhe(3-Cl-4-CF3)]P[Ac5c][NMeV][NMeD]-Piperidide; lactam N-11) | 0.21 µM | 7.5 nm/s | 0.0043 µM |  |
| CC[C@H](C)[C@@H]1NC(=O)[C@H](C2CC2)N(C)C(=O)C[C@@H](C(=O)N2CCCCC2)N(C)C(=O)[C@H](C(C)C)N(C)C(=O)C2(CCCC2)NC(=O)[C@@H]2CCCN2C(=O)[C@H](CCc2ccc(C(F)(F)F)c(Cl)c2)NC(=O)CN(C)C(=O)[C@H](CC2CCCCC2)N(C)C(=O)CN(C)C(=O)CN(C)C1=O ([NMeGly(cPr)]I[Sar][Sar][NMeCha][Sar][hPhe(3-Cl-4-CF3)]P[Ac5c][NMeV][NMeD]-Piperidide; lactam N-11) | 0.72 µM | 4.6 nm/s | 0.0085 µM |  |
| CC[C@H](C)[C@@H]1NC(=O)[C@H](CC(C)C)N(C)C(=O)C[C@@H](C(=O)N2CCCCC2)N(C)C(=O)[C@H](C)N(C)C(=O)C2(CCCC2)NC(=O)[C@@H]2CCCN2C(=O)[C@H](CCc2ccc(C(F)(F)F)c(Cl)c2)NC(=O)CN(C)C(=O)[C@H](CC2CCCCC2)N(C)C(=O)[C@@H]2CCN2C(=O)[C@H](C)N(C)C1=O ([NMeL]I[NMeA][Aze][NMeCha][Sar][hPhe(3-Cl-4-CF3)]P[Ac5c][NMeA][NMeD]-Piperidide; lactam N-11) | 5.2 µM | 9.7 nm/s | > 1 µM |  |
| CC[C@H](C)[C@@H]1NC(=O)[C@H](CC(C)C)N(C)C(=O)C[C@@H](C(=O)N2CCCCC2)N(C)C(=O)[C@H](C2CCCCC2)N(C)C(=O)C2(CCCC2)NC(=O)[C@@H]2CCCN2C(=O)[C@H](CCc2ccc(C(F)(F)F)c(Cl)c2)NC(=O)CN(C)C(=O)[C@H](CC2CCCCC2)N(C)C(=O)[C@@H]2CCN2C(=O)[C@H](C)N(C)C1=O ([NMeL]I[NMeA][Aze][NMeCha][Sar][hPhe(3-Cl-4-CF3)]P[Ac5c][NMeChg][NMeD]-Piperidide; lactam N-11) | 0.14 µM | 9.7 nm/s | < 0.002 µM |  |
| CC[C@H](C)[C@@H]1NC(=O)[C@H](CC(C)C)N(C)C(=O)C[C@@H](C(=O)N2CCCCC2)N(C)C(=O)[C@H](C2CCC2)N(C)C(=O)C2(CCCC2)NC(=O)[C@@H]2CCCN2C(=O)[C@H](CCc2ccc(C(F)(F)F)c(Cl)c2)NC(=O)CN(C)C(=O)[C@H](CC2CCCCC2)N(C)C(=O)[C@@H]2CCN2C(=O)[C@H](C)N(C)C1=O ([NMeL]I[NMeA][Aze][NMeCha][Sar][hPhe(3-Cl-4-CF3)]P[Ac5c][NMeGly(cBu)][NMeD]-Piperidide; lactam N-11) | 0.17 µM | 9.1 nm/s | 0.0025 µM |  |
| CC[C@H](C)[C@@H]1NC(=O)[C@H](CC(C)C)N(C)C(=O)C[C@@H](C(=O)N(C)C)N(C)C(=O)[C@H](C2CCCC2)N(C)C(=O)C2(CCCC2)NC(=O)[C@@H]2CCCN2C(=O)[C@H](CCc2ccc(C(F)(F)F)c(Cl)c2)NC(=O)CN(C)C(=O)[C@H](CC2CCCCC2)N(C)C(=O)[C@@H]2CCN2C(=O)[C@H](C)N(C)C1=O ([NMeL]I[NMeA][Aze][NMeCha][Sar][hPhe(3-Cl-4-CF3)]P[Ac5c][NMeGly(cPent)][NMeD]-NMe2; lactam N-11) | 0.0055 µM | 26.1 nm/s | < 0.002 µM | 0.00016 µM |
| CC[C@H](C)[C@@H]1NC(=O)[C@H](CC(C)C)N(C)C(=O)C[C@@H](C(=O)N2CCC2)N(C)C(=O)[C@H](C2CCCC2)N(C)C(=O)C2(CCCC2)NC(=O)[C@@H]2CCCN2C(=O)[C@H](CCc2ccc(C(F)(F)F)c(Cl)c2)NC(=O)CN(C)C(=O)[C@H](CC2CCCCC2)N(C)C(=O)[C@@H]2CCN2C(=O)[C@H](C)N(C)C1=O ([NMeL]I[NMeA][Aze][NMeCha][Sar][hPhe(3-Cl-4-CF3)]P[Ac5c][NMeGly(cPent)][NMeD]-{Azetidin(1-yl)}; lactam N-11) | 0.013 µM | 26.6 nm/s | < 0.002 µM | 0.00019 µM |
| CC[C@H](C)[C@@H]1NC(=O)[C@H](CC(C)C)N(C)C(=O)C[C@@H](C(=O)N2CCCCC2)N(C)C(=O)[C@H](C2CC2)N(C)C(=O)C2(CCCC2)NC(=O)[C@@H]2CCCN2C(=O)[C@H](CCc2ccc(C(F)(F)F)c(Cl)c2)NC(=O)CN(C)C(=O)[C@H](CC2CCCCC2)N(C)C(=O)[C@@H]2CCN2C(=O)[C@H](C)N(C)C1=O ([NMeL]I[NMeA][Aze][NMeCha][Sar][hPhe(3-Cl-4-CF3)]P[Ac5c][NMeGly(cPr)][NMeD]-Piperidide; lactam N-11) | 1.1 µM | 13.6 nm/s | 0.05 µM |  |
| CC[C@H](C)[C@@H]1NC(=O)[C@H](CC(C)C)N(C)C(=O)C[C@@H](C(=O)N2CCCCC2)N(C)C(=O)[C@H]([C@@H](C)CC)N(C)C(=O)C2(CCCC2)NC(=O)[C@@H]2CCCN2C(=O)[C@H](CCc2ccc(C(F)(F)F)c(Cl)c2)NC(=O)CN(C)C(=O)[C@H](CC2CCCCC2)N(C)C(=O)[C@@H]2CCN2C(=O)[C@H](C)N(C)C1=O ([NMeL]I[NMeA][Aze][NMeCha][Sar][hPhe(3-Cl-4-CF3)]P[Ac5c][NMeI][NMeD]-Piperidide; lactam N-11) | 0.048 µM | 7.5 nm/s | 0.0028 µM |  |
| CC[C@H](C)[C@@H]1NC(=O)[C@H](CC(C)C)N(C)C(=O)C[C@@H](C(=O)N2CCCCC2)N(C)C(=O)[C@H](C(C)C)N(C)C(=O)C2(CCCC2)NC(=O)[C@@H]2CCCN2C(=O)[C@H](CCc2ccc(C(F)(F)F)c(Cl)c2)NC(=O)CN(C)C(=O)[C@H](CC2CCCCC2)N(C)C(=O)[C@@H]2CCN2C(=O)[C@H](C)N(C)C1=O ([NMeL]I[NMeA][Aze][NMeCha][Sar][hPhe(3-Cl-4-CF3)]P[Ac5c][NMeV][NMeD]-Piperidide; lactam N-11) | 0.11 µM | 13 nm/s | 0.0041 µM |  |
| CC[C@H](C)[C@@H]1NC(=O)[C@H](CC(C)C)N(C)C(=O)C[C@@H](C(=O)N2CCCCC2)N(C)C(=O)[C@H](C(C)C)N(C)C(=O)C2(CCCC2)NC(=O)[C@@H]2CCCN2C(=O)[C@H](CCc2ccc(C(F)(F)F)c(Cl)c2)NC(=O)CN(C)C(=O)[C@H](CC2CCCCC2)N(C)C(=O)CN(C)C(=O)CN(C)C1=O ([NMeL]I[Sar][Sar][NMeCha][Sar][hPhe(3-Cl-4-CF3)]P[Ac5c][NMeV][NMeD]-Piperidide; lactam N-11) | 0.12 µM | 11.2 nm/s | 0.006 µM |  |
| CC[C@H](C)[C@@H]1NC(=O)[C@H](C)N(C)C(=O)C[C@@H](C(=O)n2cccc2)N(C)C(=O)[C@H](CC(C)C)N(C)C(=O)[C@H](Cc2ccccc2)N(C)C(=O)[C@H](Cc2ccccc2)NC(=O)[C@H](Cc2cccc(Cl)c2)NC(=O)CN(C)C(=O)[C@H](Cc2ccc(Cl)cc2)N(C)C(=O)CN(C)C(=O)CN(C)C1=O (cyclo(F[NMeF][NMeL][X2][NMeA]I[Sar][Sar][NMePhe(4-Cl)][Sar][Phe(3-Cl)])) | > 20 µM | 8.7 nm/s | 0.036 µM |  |
